From ChEMBL document CHEMBL1140202, “A novel cell-penetrating peptide sequence derived by structural minimization of a snake toxin exhibits preferential nucleolar localization” (J Med Chem, 2008)
Where a SMILES comes first, the peptide text is derived from it. [ ]: non-standard residue; d: D form. Ahx = NCCCCCC(=O)O

Tests used:
HeLa [1] = test: Toxicity against human HeLa cells upto 100 uM after 24 hrs by MTT assay; format: cell-based
HeLa [2] = test: Cellular uptake in human HeLa cells assessed as drug translocation through nucleolar membrane by time-lapsed confocal microscopy; format: ADME, cell-based
HeLa [3] = test: Drug penetration in human HeLa cells at 15 to 50 uM by time-lapsed confocal microscopy relative to control; format: ADME, cell-based

Activity (HeLa [2])	Drug uptake (HeLa [3]) [%]	Compound	Activity (HeLa [1])
Dose-dependent effect and tde	50	NCCCC[C@H](NC(=O)CCCCCNC(=O)CNC(=O)CNC(=O)[C@H](CCCCN)NC(=O)[C@H](CCCCN)NC(=O)[C@H](Cc1cnc[nH]1)NC(=O)[C@H](CS)NC(=O)[C@H](CCC(N)=O)NC(=O)[C@H](CCCCN)NC(=O)[C@@H](N)Cc1ccc(O)cc1)C(=O)N[C@@H](CCCCN)C(=O)NCC(=O)N[C@@H](CO)C(=O)NCC(=O)O (H-YKQCHKKGG[Ahx]KKGSG-OH)	Non-toxic
		H-GSGKKGGKKHCQKY-OH	Non-toxic
		H-GSGKKGGKKICQKY-OH	Non-toxic
	50	H-YKQCHKKGGKKGSG-OH	Non-toxic
